Tests used:
c-myc = assay: Inhibition of c-myc expression in MV4-11 cells (real-time PCR of mRNA); assay type: cell-based, Human; set-up: key: Active: Compounds with an IC50 value less than 30 uM were deemed to be active; conditions: 3 hours at 37° C.
Procedure: MV4-11 cells (2.5×10^4 cells) were plated in 96 well U-bottom plates with test compound or DMSO (0.1%), and incubated for 3 hours at 37° C. Cells were then harvested by centrifugation, lysed, and mRNA was isolated using the mRNA catcher plus kit (Invitrogen). Reverse transcription of the mRNA and duplex amplification of the c-myc and cyclophilin cDNAs was performed using the RNA Ultrasense kit (Invitrogen) and a ViiA7 real-time PCR machine (Applied Biosystems). IC50 values were determined from a dose response curve.

Brd4 bromodomain 1 = molecular target: T1, Brd4 bromodomain 1 (Homo sapiens, UniProt O60885); assay: Inhibition of binding of tetra-acetylated histone H4 to Brd4 bromodomain 1 (TR-FRET); conditions: His-tagged Brd4 bromodomain 1 200 nM, tetra-acetylated histone H4 peptide 25-50 nM, 2 hours room temperature
T1 construct: made in house; host or cells: E. coli BL21(DE3)
Procedure, shortened: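 His-tagged Brd4 BD1 was expressed in E. coli and purified by Ni affinity and size exclusion. TR-FRET competition with tetra-acetylated H4 was run in 30 mM HEPES pH 7.4, 30 mM NaCl, 0.3 mM CHAPS, 20 mM phosphate pH 7.0, 320 mM KF and 0.08% BSA, with 0.2% DMSO.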

Human AML MV-4-11 cells = assay: Inhibition of cell proliferation in human AML MV-4-11 cells (CellTiter Aqueous One); assay type: cell-based; set-up: key: Active: Compounds with an IC50 value less than 30 μM were deemed to be active; conditions: 72 hours, 30 μM to 0.2 μM
Procedure: MV4-11 cells: 96-well plates were seeded with 5×10^4 cells per well of exponentially growing human AML MV-4-11 (CRL-9591) cells and immediately treated with two-fold dilutions of test compounds, ranging from 30 μM to 0.2 μM. Triplicate wells were used for each concentration, as well as a media only and three DMSO control wells. The cells and compounds were incubated at 37° C., 5% CO2 for 72 hours before adding 20 μL of the CellTiter Aqueous One Solution (Promega) to each well and incubated at 37° C., 5% CO2 for an additional 3-4 hours. The absorbance was taken at 490 nm in a spectrophotometer and the percentage of proliferation relative to DMSO-treated cells was calculated after correction from the blank well. IC50 were calculated using the GraphPad Prism software.

IL-6 = conditions: cited from earlier work
[1] = murine model; Lamotte et al. (2012); cited from earlier work
multiple myeloma = conditions: associated with cell cycle arrest and cellular senescence; Delmore et al. (2011); cited from earlier work
[2] = test system: NUT (nuclear protein in testis) midline carcinoma (NMC); conditions: Filippakopoulos et al. (2010); cited from earlier work

Structure (SMILES) | FRET activity (<50 uM) (Brd4 bromodomain 1) | melting point | also measured
COc1cc(OC)c2c(=O)[nH]c(-c3ccc(N4CCN(C(C)C)CC4)cc3)nc2c1 [Example 10, 2-(4-(4-Isopropylpiperazin-1-yl)phenyl)-5,7-dimethoxyquinazolin-4(3H)-one] | Active | – | c-myc activity (<30 uM) (c-myc): Active; cell proliferation activity (<30 uM) (Human AML MV-4-11 cells): Inactive
COc1cc(OC)c2c(=O)[nH]c(-c3ccc(OCCN4CCCC4)c(C)c3)nc2c1 [Example 73, 5,7-Dimethoxy-2-(3-methyl-4-(2-(pyrrolidin-1-yl)ethoxy)phenyl)quinazolin-4(3H)-one] | Active | 230 to 231 °C | c-myc activity (<30 uM) (c-myc): Active
COc1cc(OCCN2CCCC2)c2c(=O)[nH]c(-c3cc(C)nc(C)c3)nc2c1 [Example 102, 2-(2,6-Dimethylpyridin-4-yl)-7-methoxy-5-(2-(pyrrolidin-1-yl)ethoxy)quinazolin-4(3H)-one] | Active | 190 to 191 °C | –
COc1cc(OCCOc2ccccc2)cc2nc(-c3cc(C)nc(C)c3)[nH]c(=O)c12 [Example 103, 2-(2,6-Dimethylpyridin-4-yl)-5-methoxy-7-(2-phenoxyethoxy)quinazolin-4(3H)-one] | Active | 223 to 224 °C | –
COc1cc(OCCOc2ccccc2)c2c(=O)[nH]c(-c3cc(C)nc(C)c3)nc2c1 [Example 104, 2-(2,6-Dimethylpyridin-4-yl)-7-methoxy-5-(2-phenoxyethoxy)quinazolin-4(3H)-one] | Active | 172.3 to 173.2 °C | –
COc1cc(OCCN2CCCC2)cc2nc(-c3cc(C)nc(C)c3)[nH]c(=O)c12 [Example 106, 2-(2,6-Dimethylpyridin-4-yl)-5-methoxy-7-(2-(pyrrolidin-1-yl)ethoxy)quinazolin-4(3H)-one] | Active | 227 to 229 °C | –
Cc1cc(-c2nc3cc(OCCOC(C)C)cc(OCCOC(C)C)c3c(=O)[nH]2)cc(C)n1 [Example 108, 2-(2,6-dimethylpyridin-4-yl)-5,7-bis(2-isopropoxyethoxy)quinazolin-4(3H)-one] | Active | 124 to 125 °C | –
COc1cc(OCCOCc2ccccc2)cc2nc(-c3cc(C)nc(C)c3)[nH]c(=O)c12 [Example 109, 7-(2-(Benzyloxy)ethoxy)-2-(2,6-dimethylpyridin-4-yl)-5-methoxyquinazolin-4(3H)-one] | Active | 178 to 180 °C | –
COCCOc1cc(OC)c2c(=O)[nH]c(-c3ccnc(C)c3)nc2c1 [Example 110, 5-methoxy-7-(2-methoxyethoxy)-2-(2-methylpyridin-4-yl)quinazolin-4(3H)-one] | Active | 260 to 262 °C | –
COCCOc1cc(OCCN2CCCC2)c2c(=O)[nH]c(-c3cc(C)nc(C)c3)nc2c1 [Example 111, 2-(2,6-Dimethylpyridin-4-yl)-7-(2-methoxyethoxy)-5-(2-(pyrrolidin-1-yl)ethoxy)quinazolin-4(3H)-one] | Active | 60.4 to 62.3 °C | –
COc1cc(OC)c2c(=O)[nH]c(-c3cccc(OCCO)c3)nc2c1 [Example 112, 2-(3-(2-Hydroxyethoxy)phenyl)-5,7-dimethoxyquinazolin-4(3H)-one] | Active | 244.8 to 246 °C | –
COc1cc(OC)c2c(=O)[nH]c(-c3cc(C)cc(OCCO)c3)nc2c1 [Example 113, 2-(3-(2-Hydroxyethoxy)-5-methylphenyl)-5,7-dimethoxyquinazolin-4(3H)-one] | Active | 106.9 to 109.1 °C | –
COc1cc(OCCN2CCCC2)cc(-c2nc3cc(OC)cc(OC)c3c(=O)[nH]2)c1 [Example 114, 5,7-Dimethoxy-2-(3-methoxy-5-(2-(pyrrolidin-1-yl)ethoxy)phenyl)quinazolin-4(3H)-one] | Active | 159 to 160 °C | c-myc activity (<30 uM) (c-myc): Active; cell proliferation activity (<30 uM) (Human AML MV-4-11 cells): Active
COc1cc(OCCNC(C)=O)cc(-c2nc3cc(OC)cc(OC)c3c(=O)[nH]2)c1 [Example 115, N-(2-(3-(5,7-dimethoxy-4-oxo-3,4-dihydroquinazolin-2-yl)-5-methoxyphenoxy)ethyl)acetamide] | Inactive | 264 to 265 °C | c-myc activity (<30 uM) (c-myc): Inactive; cell proliferation activity (<30 uM) (Human AML MV-4-11 cells): Active
COc1cc2c(cc1-c1c(C)noc1C)ncc1[nH]c(=O)n([C@H](C)c3ccccn3)c12 [I-BET151] | – | – | IL-6 expression in vivo (IL-6): decrease IL-6 expression; bacterial-induced inflammation and sepsis [1]: suppress bacterial-induced inflammation and sepsis
CCNC(=O)C[C@@H]1N=C(c2ccc(Cl)cc2)c2cc(OC)ccc2-n2c(C)nnc21 [I-BET] | – | – | IL-6 expression in vivo (IL-6): decrease IL-6 expression
Cc1sc2c(c1C)C(c1ccc(Cl)cc1)=N[C@@H](CC(=O)OC(C)(C)C)c1nnc(C)n1-2 [JQ1] | – | – | antiproliferation in multiple myeloma (multiple myeloma): potent antiproliferator; antitumor activity in murine xenograft models of NMC [2]: potent antitumor activity

Source: patent publication US20130281399A1, “TREATMENT OF DISEASES BY EPIGENETIC REGULATION” (RVX Therapeutics Inc., priority 2012, published 2013)
